The source of these data is PMC5642494 (Oncotarget, 2017).

As a reminder, the EC50 is the concentration needed to bring the measured effect to its halfway point.

The structures appear in SMILES notation. Like-named read-outs stand apart in the source and are kept apart here.

In one assay the test system is pCTD_s2 or MCL1. In words: Immunoblotting of CDK9-dependent biomarkers in ZR-75-1, T-47D and MCF7 cells. It counts as cell-based, human. Conditions: MCF7, T-47D, ZR-75-1 cells; 24 hours; highest concentration (20 µM). On the procedure:
Protein lysates were prepared from the cells and analyzed for the expression of various biomarkers by immunoblotting. The biomarkers included phosphor-Rb at serines 807/811,phosphorylation of serine 2 on the C-terminal repeat domain on RNA polymerase II (pCTD) and MCL1. Images of Western blots were cropped to denote the relevant band(s) for clarity. […] Ki-67 positive events were obtained by gating versus background signal.
For orientation: In western blotting, separated proteins are transferred to a membrane and probed.

The next assay relates to H3K9me3. In words: Hypermethylation of histone H3 at lysine 9 (H3K9me3), EFM-19. Particulars: 2 DT, n = 1, read-out: EC50 H3K9me3 levels. The format is cell-based, human. The procedure: Relative IC50/EC50 values were determined by curve fitting to a four parameter logistic equation: Y = bottom + ((top-bottom)/ (1+exp(HillSlope*(X – LnIC50)), where X is the natural log of dose/concentration, Y is response, decreasing as X increases, top and bottom are plateaus in the same units as Y, lnIC50 is the natural log of potency, in the same log units as X, and HillSlope measures the steepness of the curve. Data were plotted using GraphPad Prism.
BioResearch) where indicated; the dates of acquisition and in an Acumen Explorer Ex3 (TTP Labtech), raw data testing are listed in parentheses: ZR-75-1; T-47D; MDA- were analyzed with Cellista software and then further MB-468; HCC70; BT-549; BT-20; MDA-MB-231; MDA- normalized in Excel against the values obtained for cells MB-175-VII, HCC-1937; MDA-MB-415. treated with 2 µM BEZ235, or vehicle (0.2% v/v DMSO); data were graphed using GraphPad Prism®. Images were SA-β-galactosidase immunocytochemical labeling taken by fluorescent microscopy using a Leica DMiL. […]
SA-β-gal Cell samples were lysed after treatment with expression was determined using the Senescence Cells 100 µL lysis buffer and transferred to a 96-well plate. […]
(BSA) (Invitrogen #15260-037) for 1 hour at 25°C. EdU Samples were analyzed by LC─MS/MS under the detection was performed using the Click-iT High Content conditions described below. […]

As to `CCN1CCN(Cc2ccc(Nc3ncc(F)c(-c4cc(F)c5nc(C)n(C(C)C)c5c4)n3)nc2)CC1` [abemaciclib, Abemaciclib], the “levels of pCTD_s2 or MCL1” value in the assay on pCTD_s2 or MCL1 is “no changes were observed”. The EC50 with H3K9me3 (EFM-19) came out at 23 nM; in the assay on H3K9me3 (Homo sapiens, EFM-19, EFM-19), 23.2 nM.
